Here are results for 8 substances from paper PMC11596392, “Enhanced Antibacterial, Anti-Inflammatory, and Antibiofilm Activities of Tryptophan-Substituted Peptides Derived from Cecropin A-Melittin Hybrid Peptide BP100” (Molecules, 2024).

Where no end group is shown, it is not given here.

The test system of test [1] is preformed MDRPA (CCARM 2095) biofilms. The format is cell-based, multidrug-resistant Pseudomonas aeruginosa. The conditions noted are these: 24 h treatment; for MBEC50: 50% eradication; for MBEC90: 90% eradication. As to the method:
While preventing biofilm formation on surfaces is crucial, treating established biofilm infections presents a significant challenge due to the extracellular polymeric substance (EPS) matrix hindering antibiotic penetration and the high cell density within mature biofilms. To address this challenge, we evaluated the ability of BP100 and its analogs to eradicate established MDRPA biofilms over a 24 h period. The minimum biofilm eradication concentration (MBEC90) was determined using crystal violet staining as the lowest concentration that reduced biomass by more than 90%. Among these peptides, BP5, BP6, BP7, BP8, BP9, BP11, and BP13 eradicated preformed MDRPA biofilms by more than 90% at a concentration of 8 μM (Figure 3c,d and Table 3).
The minimal biofilm eradication concentration (MBEC) for peptides against the multidrug-resistant Pseudomonas aeruginosa (MDRPA) (CCARM 2095) strain was assessed using the Calgary Biofilm Device (CBD), supplied by Innovotech, Edmonton, AB, Canada. A bacterial suspension with a density of (1 × 10^6) CFU/mL in (150 µL) of Luria–Bertani (LB) media was dispensed into each well of a 96-well microtiter plate, which was equipped with a peg lid (Innovotech, product code: 19111). This plate was incubated at 37 °C for 24 h with agitation at 110 rpm, promoting biofilm formation on the pegs. Subsequently, the peg lid was washed with phosphate-buffered saline (PBS, 0.01 M) and relocated to a fresh plate containing varying peptide concentrations (200 µL per well). The biofilms were then subjected to these peptides under the same incubation conditions. After another PBS rinse, the peg lid was moved to a recovery plate filled with (200 µL) of LB media per well. To detach the biofilms from the pegs, the recovery plate underwent sonication in a water bath for 10 to 15 min. Finally, the recovery plate was incubated at 37 °C for 24 h with agitation at 110 rpm, allowing any surviving bacteria to proliferate and cause turbidity. The MBEC is defined as the lowest concentration of peptides that inhibited turbidity formation in the recovery plate in comparison to sterility controls. This experiment was conducted in triplicate, and the median value from each trial was recorded.

The test system of another test is VREF (ATCC 51559). Format: cell-based, vancomycin-resistant Enterococcus faecium. As to conditions: broth microdilution in MHB, 37 °C, 24 h, 100% inhibition of growth. The method, then:
(§1) The antibacterial efficacy of the synthesized peptides was evaluated by determining the minimal inhibitory concentrations (MICs) against six standard bacterial strains and five drug-resistant bacterial strains using the Clinical and Laboratory Standards Institute (CLSI) microdilution method. Melittin served as the positive control.
(§2) The minimal inhibitory concentrations (MICs) of the peptides against bacterial strains were determined using a modified broth-microdilution method in accordance with the National Committee for Clinical Laboratory Standards (NCCLS) guidelines. Overnight cultures were diluted in cation-adjusted Mueller–Hinton Broth (MHB) to achieve an inoculum density of 2 × 10^6 CFU/mL. A two-fold serial dilution of the peptide solution (100 μL) was introduced into microtiter plates, followed by the addition of 100 μL of bacterial suspension. The plates were then incubated at 37 °C for 24 h to determine the MICs. Wells containing only culture media served as negative controls, while those with added bacteria functioned as positive controls. The MIC, expressed in μM, was defined as the lowest peptide concentration that prevented visible bacterial growth. This protocol was also employed to determine MICs in the presence of physiological salts (150 mM of NaCl, 4.5 mM of KCl, 6 μM of NH4Cl, 1 mM of MgCl2, 2.5 mM of CaCl2, and 4 μM of FeCl3) and 20% human serum to assess the peptides’ efficacy under conditions more closely resembling physiological environments. All experiments were conducted in triplicate and repeated three times independently to ensure reproducibility and statistical significance of the results.
In general terms: Dilution methods test growth across graded concentrations, often in twofold steps.

The subject of another test is MDRPA (CCARM 2095). The format is cell-based, multidrug-resistant Pseudomonas aeruginosa. The conditions noted are these: broth microdilution in MHB, 37 °C, 24 h, 100% inhibition of growth. The method, then: as §1, §2
The test system of the next test is MDRPA (CCARM 2109). The format is cell-based, multidrug-resistant Pseudomonas aeruginosa. The conditions noted are these: broth microdilution in MHB, 37 °C, 24 h, 100% inhibition of growth. As to the method:
as §1, §2

The subject of test [2] is MDRPA (CCARM 2095) biofilm formation. The format is cell-based, multidrug-resistant Pseudomonas aeruginosa. As to conditions: overnight 37 °C, crystal violet staining; for MBIC50: 50% inhibition; for MBIC90: 90% inhibition. From the text: Bacterial biofilms, comprising communities of bacterial cells encased in a matrix of polysaccharides and nucleic acids, present a significant challenge for conventional antibiotics due to the protective nature of this matrix. Biofilms can enhance bacterial resistance to antibiotics by up to 1000-fold compared to planktonic bacteria. To address this issue, there is an urgent need to discover and develop novel alternative therapeutic agents capable of effectively combating biofilm-forming bacteria. […] Our research specifically focused on evaluating the impact of BP100 and its analogs on biofilm formation and eradication using multidrug-resistant Pseudomonas aeruginosa (MDRPA), a common pathogen responsible for biofilm-mediated nosocomial infections. The adhered biomass was quantified using crystal violet staining, and the minimum biofilm inhibitory concentration (MBIC90) was determined as the lowest concentration required to inhibit 90% of biofilm growth relative to the positive control. […] Human cathelicidin LL-37 is well-documented for its potent antibiofilm properties.
The inhibitory activity of the peptides on biofilm formation was evaluated against multidrug-resistant Pseudomonas aeruginosa (MDRPA) (CCARM 2095) using a biofilm inhibition assay to determine the minimal biofilm inhibitory concentration (MBIC). Peptide solutions were serially diluted in sterile water and aliquoted (100 μL) into a 96-well Costar polypropylene plate (Corning Inc., Corning, NY, USA). An equal volume of MDRPA suspension in Mueller–Hinton Broth (MHB), adjusted to 1 × 10^6 CFU/mL, was added to each well, resulting in a final inoculum density of 5 × 10^5 CFU/mL. Following overnight incubation at 37 °C, bacterial growth was quantified by measuring the optical density (OD) at 595 nm. Planktonic cells were then discarded, and the attached biofilms were washed thrice with distilled water. Residual biofilms were stained with 0.1% crystal violet for five minutes, washed to remove non-adherent dye, and subsequently destained using 95% ethanol. The OD at 595 nm was measured again to assess the biofilm mass. Control wells contained untreated bacteria. The MBIC was defined as the lowest peptide concentration that inhibited any residual crystal violet staining or biofilm formation. All assays were conducted in triplicate to ensure reproducibility. This method allows for the quantitative assessment of the peptides’ ability to prevent biofilm formation, a critical virulence factor in many bacterial infections, particularly those caused by multidrug-resistant strains.

A further test concerns S. aureus (KCTC 1621). Format: cell-based, Staphylococcus aureus. As to conditions: broth microdilution in MHB, 37 °C, 24 h, 100% inhibition of growth. As to the method:
as §1, §2

As for KKLFKKWWKYL-NH2 [BP9], in test [1], the MBEC50 stood at 4 µM. In test [1], this substance registered an MBEC90 of 8 µM. The “Minimal Inhibitory Concentration (MIC)” value in the test on VREF (ATCC 51559) came to 64 µM; in the test with MDRPA (CCARM 2095), 16 µM; with MDRPA (CCARM 2109), 16 µM; in the test on S. aureus (KCTC 1621), 8 µM. The substance also gave an MBIC50 in test [2] of 8 to 16 µM. The substance also yielded an MBIC90 in test [2] of 16 µM.

In test [1], KKLWKKILKWL-NH2 [BP8] showed an MBEC50 of 2 µM. Also, the MBEC90 in test [1] is 8 µM. For the same substance, the “Minimal Inhibitory Concentration (MIC)” value in the test with VREF (ATCC 51559) was found to be 16 µM; in the test with MDRPA (CCARM 2095), 8 µM; with MDRPA (CCARM 2109), 16 µM; in the test with S. aureus (KCTC 1621), 4 µM. This substance also came in with an MBIC50 in test [2] of 4 to 8 µM. The substance further had an MBIC90 in test [2] of 8 µM.

Regarding KKLWKKIWKYL-NH2 [BP7], in test [1], the MBEC50 is 4 to 8 µM. The same substance came in with an MBEC90 in test [1] of 8 µM. Moreover, the “Minimal Inhibitory Concentration (MIC)” value came to 32 µM in the test with VREF (ATCC 51559), 8 µM in the test with MDRPA (CCARM 2095), 4 µM in the test with MDRPA (CCARM 2109) and 2 µM in the test on S. aureus (KCTC 1621). The MBIC50 in test [2] lay within 4 to 8 µM. Moreover, the MBIC90 in test [2] came out at 8 µM.

Take KKLWKKIWKYW-NH2 [BP15]: the MBEC50 in test [1] lay within 8 to 16 µM. The MBEC90 in test [1] came out at 16 µM. For the same substance, the “Minimal Inhibitory Concentration (MIC)” value with VREF (ATCC 51559) turned out to be 64 µM; in the test on MDRPA (CCARM 2095), 16 µM; in the test with MDRPA (CCARM 2109), 8 µM; with S. aureus (KCTC 1621), 2 µM. In test [2], this substance returned an MBIC50 of 4 to 8 µM. Moreover, the MBIC90 in test [2] stood at 8 µM.

In test [1], KKLWKKWLKYW-NH2 [BP14] gave an MBEC50 of 8 to 16 µM. Also, in test [1], the MBEC90 came out at 16 µM. Besides, the “Minimal Inhibitory Concentration (MIC)” value with VREF (ATCC 51559) was 64 µM; with MDRPA (CCARM 2095), 16 µM; in the test on MDRPA (CCARM 2109) it was 8 µM; in the test on S. aureus (KCTC 1621), 2 µM. The MBIC50 in test [2] fell in the range of 8 to 16 µM. The MBIC90 in test [2] is 16 µM.

In test [1], KKWFKKILKWL-NH2 [BP6] returned an MBEC50 of 4 µM. Further, the MBEC90 in test [1] came out at 8 µM. Also, the “Minimal Inhibitory Concentration (MIC)” value in the test with VREF (ATCC 51559) came to 8 µM; with MDRPA (CCARM 2095) it was 8 µM; in the test on MDRPA (CCARM 2109) it was 16 µM; with S. aureus (KCTC 1621), 2 µM. The substance also came in with an MBIC50 in test [2] of 4 to 8 µM. Moreover, in test [2], the MBIC90 came to 8 µM.

KKWFKKWLKWL-NH2 [BP13]: in test [1], the MBEC50 was found to be 4 µM. Further, the MBEC90 in test [1] was determined as 8 µM. For the same substance, the “Minimal Inhibitory Concentration (MIC)” value with VREF (ATCC 51559) worked out at 16 µM; in the test with MDRPA (CCARM 2095), 8 µM; in the test with MDRPA (CCARM 2109) it was 16 µM; with S. aureus (KCTC 1621), 4 µM. In addition, in test [2], the MBIC50 fell in the range of 4 to 8 µM. In addition, in test [2], the MBIC90 was 8 µM.

Regarding KKWWKKILKYL-NH2 [BP5], in test [1], the MBEC50 is 2 µM. In test [1], this substance had an MBEC90 of 8 µM. The “Minimal Inhibitory Concentration (MIC)” value in the test with VREF (ATCC 51559) is 8 µM; with MDRPA (CCARM 2095) it was 8 µM; in the test with MDRPA (CCARM 2109), 4 µM; in the test with S. aureus (KCTC 1621) it was 2 µM. The same substance gave an MBIC50 in test [2] of 4 to 8 µM. In test [2], this substance returned an MBIC90 of 8 µM.
